Patent US20200181597A1, “Composition and Application of Arginine-depleting Agents for Cancer, Obesity, Metabolic Disorders, and Related Complications and Comorbidities” (THE HONG KONG POLYTECHNIC UNIVERSITY, priority 2018, published 2020)

Experiments:
[1] = tested on: mouse 3T3-L1 preadipocytes; assay: 3T3-L1 preadipocyte differentiation (oil red O, qRT-PCR); format: cell-based; settings: for adipogenesis and lipogenesis in 3T3-L1 cells (oil red O): added to culture medium, 6 days of differentiation
Description: FIG. 23 illustrates that arginine depletion by adding N-ABD094-rhArg (SEQ ID NO: 50) (rhArg), bovine arginase or native arginine deiminase (ADI) to the culture medium, or using arginine-free medium inhibited the differentiation of mouse 3T3-L1 preadipocytes into adipocytes. […] (*The culture medium contains 0.4 mM L-arginine and can be converted into 0.4 mM L-ornithine and 0.4 mM urea by arginase, or 0.4 mM L-citrulline by ADI.). Cells grown in culture medium without addition of arginine depleting agents or metabolic products of arginase/ADI served as the control. Lipids in cells were stained with oil red O at 6 days after exposure to specific differentiation-inducing factors added to the medium.
FIG. 24 illustrates that N-ABD094-rhArg (SEQ ID NO: 50) could suppress adipogenic and lipogenic genes in 3T3-L1 preadipocytes. Mouse 3T3-L1 preadipocytes were cultured for 6 days in medium supplemented with specific factors to induce differentiation into adipocytes (differentiated). Cells grown in medium without these factors remained undifferentiated. The medium was added with 2U/mL N-ABD094-rhArg (SEQ ID NO: 50) (rhArg). Cells grown in medium without the addition of N-ABD094-rhArg served as the control. The mRNA expression levels of several crucial (A) transcriptional regulators of adipogenesis, and (B) enzymes in lipogenic pathways were determined by real-time qRT-PCR, and expressed relative to the undifferentiated (control) group, which is set as 1. *P<0.05, one-way ANOVA followed by Fisher's LSD. Data are expressed as mean±SEM, n=3 for each group.
FIG. 25 illustrates the response of 3T3-L1 preadipocytes to various concentrations of arginine Mouse 3T3-L1 preadipocytes were cultured in arginine-free medium with or without addition of varying concentrations of L-arginine for 6 days. Cells cultured in normal arginine-containing medium supplemented with differentiation inducing factors served as the positive (+ve) control of differentiation, while cells cultured in normal arginine-containing medium without supplementation of differentiation inducing factors served as the negative (−Ve) control of differentiation. One group of cells was cultured in normal arginine-containing medium supplemented with differentiation inducing factors and treated with 5U/mL N-ABD094-rhArg (SEQ ID NO: 50) (rhArg) to inhibit differentiation. (A) Cells were stained for lipids with oil red O, and staining intensity was quantified by measuring optical density, which is expressed as the percentage against the +ve control group. (B) The mRNA levels of several crucial lipogenesis related genes are expressed relative to cells cultured in arginine-free medium, which is set as 1. Data are expressed as mean±SEM, n=3 for each group.
To test the effect of N-ABD094-rhArg (SEQ ID NO: 50) on fat cells, mouse 3T3-L1 preadipocytes were used, which are commonly employed as cell-based model for studying adipogenesis [Green and Meuth, 1974, Cell 3:127-133].

circulating arginine = settings: i.p., cited from earlier work

**Q.** Which “adipogenesis and lipogenesis in 3T3-L1 cells (oil red O)” value (from here on “adipogenesis and lipogenesis”) [1] does the source give for `NC(N)=O` [urea] here?
**A.** could not inhibit

**Q.** With `NCCC[C@H](N)C(=O)O` [L-ornithine] as the molecule, how does the “adipogenesis and lipogenesis” value [1] read?
**A.** could not inhibit

**Q.** Which “adipogenesis and lipogenesis” value [1] does the source give for `NC(=O)NCCC[C@H](N)C(=O)O` [L-citrulline] here?
**A.** could not inhibit

**Q.** For `N=C(N)NCCC[C@H](N)C(=O)O` [L-arginine], which “threshold concentration for activation of Cebpa, Pparg and Scd1” value ([1]; arginine-free medium supplemented with L-arginine, 6 days) is on record?
**A.** 10 to 40 µM

B1: PEGylated rhArg (conjugate, UniProt P05089 1-322, looked up)
Arginase-1: MSAKSRTIGIIGAPFSKGQPRGGVEEGPTVLRKAGLLEKLKEQECDVKDYGDLPFADIPNDSPFQIVKNPRSVGKASEQLAGKVAEVKKNGRISLVLGGDHSLAIGSISGHARVHPDLGVIWVDAHTDINTPLTTTSGNLHGQPVSFLLKELKGKIPDVPGFSWVTPCISAKDIVYIGLRDVDPGEHYILKTLGIKYFSMTEVDRLGIGKVMEETLSYLLGRKKRPIHLSFDVDGLDPSFTPATGTPVVGGLTYREGLYITEEIYKTGLLSGLDIMEVNPSLGKTPEEVTRTVNTAVAITLACFGLAREGNHKPIDYLNPPK
modifications: PEGylated
**Q.** For B1, which “time circulating arginine below detection limit (3 μM)” value (circulating arginine; 1,500 U per rat (6 U/g)) is on record?
**A.** 6 days

B2: native rhArg: native recombinant human arginase (Tsui et al.) (protein, UniProt P05089 1-322, looked up)
Arginase-1: B1 Arginase-1
**Q.** Which “circulating arginine within 3 hour of injection” value (circulating arginine; 7,500 U/rat) does the source give for B2 here?
**A.** ~20 µM

**Q.** And the “time for arginine to return to basal level post-injection” value (circulating arginine; 7,500 U/rat)?
**A.** ~2 days
